In patent US8614021B2, “Agents for enhanced charge transport across microbial membranes” (The United States of America as represented by the …, priority 2010, dated 2013):
Entries after “also recorded” stand apart in the source; their conditions may differ. Like-named read-outs stand apart in the source and are kept apart here.

Columns and labels:
[1] = Cyclic voltammetry blocking experiment: transmembrane electron transport across sBLMs to aq. ferricyanide; details: for transmembrane electron transport across sBLM (current in CV): 2 mol % in DMPC and DPPC sBLMs, aq. ferricyanide, 200 mV/s scan rate
Description: Bilayer membranes supported on glassy carbon electrodes were prepared according to a modified literature procedure (Huang, W.; Zhang, Z.; Han, X.; Tang, J.; Wang, J.; Dong, S.; Wang, E. Biophys. J. 2002, 83, 3245-3255; Wu, Z.; Tang, J.; Cheng, Z.; Yang, X.; Wang, E. Anal. Chem. 2000, 72, 6030-6033). […] Electrode surface modification was performed by applying a constant 1.5 V bias for four minutes to a freshly polished glassy carbon electrode submerged in a 0.1 M aq. NaOH solution. Upon completion of this process the electrode was dried via argon steam followed by deposition of a 5 μL aliquot of the desired DMPC membrane forming solution to the electrode surface. The solvent was allowed to evaporate and electrode was immediately placed into phosphate buffer (pH 7.4) to allow the bilayer to assemble over a 0.5 hour time period. The working electrode containing the supported bilayer lipid membrane (sBLM) was then used directly.
Cyclic voltammograms were collected at scan rates of 50-200 mV/sec using a standard three-electrode setup that employed a Pt wire counter electrode, a Ag/AgCl reference electrode and a glassy carbon working electrode (modified or unmodified). All runs were performed in aq. 0.5 M KCl electrolyte solution containing 1 mM potassium ferricyanide (the active redox and indicator species). Oxygen was removed from the system via bubbling Ar through the solution for several minutes prior to data collection. The working electrode was freshly polished between each run prior to voltammogram collection or sBLM formation followed by voltammogram collection. Data was collected within the range of 0-0.4 V potentials relative to Ag/AgCl.
OPVs within a saturated alkane thiol monolayer can facilitate charge tunneling from a metallic electrode to a tethered redox species (Dudek, S. P.; Sikes, H. D.; Chidsey, C. E. D. J. Am. Chem. Soc. 2001, 123, 8033-8038; Sikes, H. D.; Smalley, J. F.; Dudek, S. P.; Cook, A. R.; Newton, M. D.; Chidsey, C. E. D.; Feldberg, S. W. Science. 2001, 291, 1519-1523). A variation of this approach was used in which supported bilayer membranes (sBLM) containing DSSN+, DSBN+ and other control molecules were prepared on the surface of a glassy carbon electrode surface. The sBLM-modified electrodes were then employed in a series of ‘blocking’ experiments in which cyclic voltammetry was used to monitor the reversible […] of aqueous ferricyanide. The unmodified sBLM acts as an insulating layer between the working electrode and the solution containing ferricyanide thereby greatly suppressing the redox current (Wiegand, G.; Arribas-Layton, N.; Hillebrandt, H.; Sackmann, E.; Wagner, P. J. Phys. Chem. B. 2002, 106, 4245-4254; Żebrowska, A.; Krysiński, P.; ? otowski, Z. Bioelectrochemistry. 2002, 56, 179-184). […]

[2] = system: yeast; experiment: Yeast microbial fuel cell (U-tube MFC) voltage production; assay type: cell-based; details: for Maximum voltage (Vmax): across a 10 kΩ resistor
Description: Two-chamber MFCs were constructed in a similar fashion as previously described (Milliken, C. E.; May, H. D. Appl. Microbiol. Biotechnol. 2007, 73, 1180-1189; Sund, C. J.; Wong, M. S.; Sumner, J. J. Biosens. Bioelectron. 2009, 24, 3144-3147; Sund, C. J.; McMasters, S.; Crittenden, S. R.; Harrell, L. E.; Sumner, J. J. Appl. Microbiol. Biotechnol. 2007, 76, 561-568) with some modifications and pictured in FIG. 9. The anodes and cathodes consisted of carbon felt (100% Activated Carbon Fiber Filter, CarboPur Technologies, Montreal, Canada), ⅛ inch thick, cut to the dimensions of 5 cm by 1 cm. The carbon felts were attached to 0.25 mm diameter titanium wires (AlfaAesar, Ward Hill, Mass.) as electrical leads. A new piece of Nafion® 117 (DuPont, Wilmington, Del., USA) was used for each fuel cell. Anode wires were passed through silicone rubber septa used to seal the anode compartment following inoculation while the cathode compartment was covered with a loose-fitting glass vial. Each fuel cell compartment was filled with 20 ml of media and autoclaved. Inoculation of MFCs consisted of addition of 300 μL of stained (25 μM COE) or unstained yeast stock solution (O.D.=1.75). Methylene blue was added separately as a stock solution (0.1% by weight, 2.67 mM) for the positive control runs employing this mediator. MFCs were incubated in an aerobic 30° C. incubator and the potential across a 10 kΩ resistor was measured and recorded every 10 seconds via a DAQPad-6016 and a custom LabView® VI (National Instruments, Austin, Tex., USA).
A U-tube type MFC (Milliken, C. E.; May, H. D. Appl. Microbiol. Biotechnol. 2007, 73, 1180-1189; Sund, C. J.; Wong, M. S.; Sumner, J. J. Biosens. Bioelectron. 2009, 24, 3144-3147; Sund, C. J.; McMasters, S.; Crittenden, S. R.; Harrell, L. E.; Sumner, J. J. Appl. Microbiol. Biotechnol. 2007, 76, 561-568) (FIG. 9) was employed to test and compare the performance of a series of yeast MFCs employing nM concentrations of DSSN+ and DSBN+ to the performance of a series of negative controls with no external mediator and a series of positive controls employing the common electron transport mediator methylene blue in μM concentrations. The details of MFC construction, preparation, and evaluation are discussed in detail in the section entitled “Microbial fuel cell preparation and assembly.” MFC performance was evaluated in terms of voltage instead of current. Voltage readings were obtained as a function of current across a 10 kΩ resistor.

[3] = system: Baker's yeast; experiment: Yeast cell staining, confocal/epi-fluorescence imaging; assay type: cell-based; details: for accumulation within cell membranes (fluorescence images): 100 μM, 1 hour of shaking, excitation 488 nm
Description: Stock solutions of DSSN+ and DSBN+ (1-5 mM, typically 5 mL) were prepared in pH 7.3 phosphate buffer. […] Cultures were never allowed to exceed an optical density of 6. In a typical cell staining run a 1 mL sample was transferred to 1.5 mL Eppendorf tube and the growth media was removed by centrifugation of cells followed by decanting of the growth media. The cells were then re-suspended in phosphate buffer and an appropriate volume of oligoelectrolyte stock solution was added to achieve a 10-100 μM concentration of DSSN+ or DSBN+. The cells were then shaken lightly for 10-180 min at room temperature. The cells can then be imaged directly or following buffer exchange via centrifugation and cell re-suspension. In an alternate procedure, as is the same staining (membrane incorporation) procedure performed with MFC inoculation samples, the cells are simply stained (by addition of COE stock solutions prepared in growth media to culture samples) and imaged directly in the original growth media. […] Sample preparation is completed by depositing a ˜3-6 μL aliquot of stained cell solution onto a traditional slide followed by a cover slip (in this case the slide is inverted and placed over a water or oil immersion objective interfaced with either a Nikon or Leica confocal fluorescence microscope). […]
FIG. 8 consists of two sets of confocal microscopy fluorescence images of Baker's yeast, each stained and imaged in a 100 μM solution of DSSN+ (FIG. 8A) or DSBN+ (FIG. 8B) after 1 hour of shaking without exchanging the staining media.
The ability of DSBN+ and DSSN+ to be passed on to or exist within cell membranes of subsequent yeast generations born over the course of MFC operation was also investigated. […] Cells from each of these aliquots were imaged using a confocal microscope in epi-fluorescence mode and brightfield mode. […] FIG. 11B is an epi-fluorescence and brightfield image (inset, lower left) of a small group of yeast cells removed from the same MFC on the fourth day of operation.

[4] = Cyclic voltammetry, oxidation of the oligoelectrolytes (current/potential curves); assay type: physicochemical; details: vs. Ag/AgCl, 200 mV/s scan rate
[5] = UV-Vis absorbance and PL spectroscopy of oligoelectrolytes embedded in lipid bilayers (DMPC vesicles); details: for εmax / λabs / λem / η: lipid bilayer; for blue (hypsochromic) shift in λem / red (bathochromic) shift in λabs: lipid bilayer (DMPC vesicle membranes) compared to water / pH 7.3 HEPES buffer; for η: relative to a fluorescein standard at pH 12
Description: In order to prepare a typical membrane modified vesicle sample by sonication a methanolic DMPC solution containing a desired mol % DSBN+ was prepared (a typical solution is 1-5 mole % DSBN+ based on 50 micro-moles of DMPC). The methanol was slowly removed by argon flow while the solution was held at a constant 32-38° C. followed by vacuum oven drying at room temperature until dried to a constant weight. Next, enough H2O or pH 7 HEPES buffer was added to obtain a solution with a concentration of ˜1-20 mg/mL depending upon application (imaging or photoluminescence measurement for example). This solution was then sonicated at 40-50° C. for 0.5-7 hours, typically until the solution had lost most of its turbidity. This generates multi-lamellar vesicles. Uni-lamellar vesicles with diameters of ˜450 nm (with a somewhat broad size distribution based on cryo-TEM images) were formed as the resulting solution was filtered using 0.45 μm pore size syringe filters to yield a slightly turbid solution that must be further diluted to clarity with water or buffer in order to collect UV absorbance or photoluminescence spectra.
Efforts to modify the vesicle membranes with DSBN+ and DSSN+ followed modified literature procedures (Lin, A. J.; Slack, N. L.; Ahmad, A.; George, C. X.; Samuel, C. E.; Safinya, C. R. Biophys. J. 2003, 84, 3307-3316). First, a lipid stock solution containing the desired fraction of either DSSN+ or DSBN+, typically 1-5 mol % relative to lipid, was prepared in methanol. This lipid/COE stock solution was then heated and held above the transition temperature of the lipid (23° C. and 41° C. for DMPC and DPPC, respectively) as the solvent was removed via Argon flushing, followed by vacuum drying to a constant weight. The resulting lipid/COE solid was then suspended in pH=7.3 HEPES buffer to the desired concentration (1-10 mg/mL). Multi-lamellar vesicles were then formed by self-assembly upon sonication of the resulting solution. Uni-lamellar vesicles were prepared by filtration (using 0.45 or 0.2 μm pore size syringe filters) or by extrusion (Olson, F.; Hunt, C. A.; Szoka, F. C.; Vail, W. J.; Papahadjopoulos, D. Biochim. Biophys. Acta. 1979, 557, 9-23; Socaciu, C.; Bojarski, P.; Aberle, L.; Diehl, H. A. Biophys. Chem. 2002, 99, 1-15; Szoka, F.; Olson, F.; Heath, T.; Vail, W.; Mayhew, E.; Papahadjopoulos, D. Biochim. Biophys. Acta. 1980, 601, 559-571).

[6] = UV-Vis absorption and photoluminescence (PL) spectroscopy in solvents of varying polarity; details: for η (quantum efficiency): relative to a fluorescein standard at pH 12
Description: General photophysical and solvatochromatic features of the neutral (DSSN, DSBN) and charged (DSSN+, DSBN+) versions of each chromophore were probed by using UV-Vis absorption and photoluminescence (PL) spectroscopies.

[7] = DMSO; value abstracted from reference (Woo et al. JACS 2005); cited from earlier work

| SMILES | transmembrane electron transport across sBLM (current in CV) [1] | accumulation within cell membranes (fluorescence images) [3] | Maximum voltage (Vmax) ([2]; 190 nM) [mV] | oxidation potential (Eox) [4] [V] | εmax [5] [Lmol^−1cm^−1 × 10^−4] | λabs [5] [nm] | λem [5] [nm] | blue (hypsochromic) shift in λem [5] [nm] | red (bathochromic) shift in λabs [5] [nm] | η [5] | εmax (molar extinction coefficient at λmax) ([6]; DMSO) [Lmol^−1cm^−1 × 10^−4] | λabs ([6]; DMSO) [nm] | λem ([6]; DMSO) [nm] | η (quantum efficiency) ([6]; DMSO) | εmax (molar extinction coefficient at λmax) ([6]; water) [Lmol^−1cm^−1 × 10^−4] | λabs ([6]; water) [nm] | λem ([6]; water) [nm] | η (quantum efficiency) ([6]; water) | εmax (molar extinction coefficient at λmax) ([6]; THF) [Lmol^−1cm^−1 × 10^−4] | λabs ([6]; THF) [nm] | also measured |
| --- | --- | --- | --- | --- | --- | --- | --- | --- | --- | --- | --- | --- | --- | --- | --- | --- | --- | --- | --- | --- | --- |
| CCCCCCCCCCCCN(CCCCCCCCCCCC)CCCCCCCCCCCC [TDA, tridodecylamine, reference compound] | Little to no transmembrane electron transfer occurs; also recorded: featureless |  |  |  |  |  |  |  |  |  |  |  |  |  |  |  |  |  |  |  |  |
| CN(C)c1ccc2nc3ccc(=[N+](C)C)cc-3sc2c1 [methylene blue, reference compound] |  |  |  |  |  |  |  |  |  |  |  |  |  |  |  |  |  |  |  |  | Maximum voltage (Vmax) ([2]; 13 μM): ~40 mV |
| C[N+](C)(C)CCCCCCN(CCCCCC[N+](C)(C)C)c1ccc(/C=C/c2ccc(/C=C/c3ccc(/C=C/c4ccc(N(CCCCCC[N+](C)(C)C)CCCCCC[N+](C)(C)C)cc4)cc3)cc2)cc1 [DSSN+, 4,4′-bis(4′-(N,N-bis(6″-(N,N,N-trimethylammonium)hexyl)amino)-styryl)stilbene tetraiodide] | facilitate transmembrane electron transport; also recorded: display higher currents with respect to the control experiments | apparent preferential accumulation of the COEs within cell membranes | ~200 | ~0.55 | 8.4 | 433 | 532 | 62 | 21 | 0.85 | 9.8 | 435 | 596 | 0.71 | 6.6 | 412 | 594 | 0.06 |  |  | presence of mediator in later cell generations ([3]; yeast stained with 25 μM, removed from MFC on day 4 of operation): demonstrate the presence of this mediator in later cell generations; increase in voltage production compared to methylene blue ([2]; 190 nM vs 13 μM methylene blue): ~5 fold; current response of sBLMs containing DSSN+ instead of DSBN+ ([1]; 2 mol % in sBLMs): greater current response |
| C[N+](C)(C)CCCCCCN(CCCCCC[N+](C)(C)C)c1ccc(C=Cc2ccc(C=Cc3ccc(N(CCCCCC[N+](C)(C)C)CCCCCC[N+](C)(C)C)cc3)cc2)cc1.[I-].[I-].[I-].[I-] [DSBN+, 1,4-bis(4′-(N,N-bis(6″-(N,N,N-trimethylammonium)hexyl)amino)-styryl)benzene tetraiodide] | facilitate transmembrane electron transport; also recorded: display higher currents with respect to the control experiments | apparent preferential accumulation of the COEs within cell membranes | ~55 | ~0.55 | 4.8 | 422 | 474 | 92 | 16 | 0.59 | 8.2 | 419 | 511 | 0.86 | 6.0 | 406 | 566 | 0.33 |  |  |  |
| ICCCCCCN(CCCCCCI)c1ccc(C=Cc2ccc(C=Cc3ccc(C=Cc4ccc(N(CCCCCCI)CCCCCCI)cc4)cc3)cc2)cc1 [DSSN, 4,4′-bis(4′-(N,N-bis(6″-iodohexyl)amino)styryl)stilbene] |  |  |  |  |  |  |  |  |  |  | 9.6 | 436 | 602 | 0.73 |  |  |  |  | 10.6 | 426 | λem ([6]; THF): 526 nm; η (quantum efficiency) ([6]; THF): 0.89; εmax (molar extinction coefficient at λmax) ([6]; toluene): 10.7 Lmol^−1cm^−1 × 10^−4; λabs ([6]; toluene): 425 nm; λem ([6]; toluene): 476 nm; η (quantum efficiency) ([6]; toluene): 0.95 |
| ICCCCCCN(CCCCCCI)c1ccc(C=Cc2ccc(C=Cc3ccc(N(CCCCCCI)CCCCCCI)cc3)cc2)cc1 [DSBN, 1,4-bis(4′-(N,N-bis(6″-iodohexyl)amino)styryl)benzene] |  |  |  |  |  |  |  |  |  |  |  | 419 | 516 | 0.81 |  |  |  |  | 8.5 | 410 | λem ([6]; THF): 466 nm; η (quantum efficiency) ([6]; THF): 0.92; εmax (molar extinction coefficient at λmax) ([6]; toluene): 8.4 Lmol^−1cm^−1 × 10^−4; λabs ([6]; toluene): 410 nm; λem ([6]; toluene): 454 nm; η (quantum efficiency) ([6]; toluene): 0.98; εmax (molar extinction coefficient at λmax) [7]: 7.8 Lmol^−1cm^−1 × 10^−4 |
